Series [1] relates to Plasmodium yoelii. The series can be described thus: Antimalarial activity against multidrug resistant Plasmodium yoelii infected in swiss mouse assessed as reduction in parasitaemia at 96 mg/kg, po. The format is functional. On the set-up: scale not given: the % may be the effect or the level left.
Series [2] concerns Plasmodium yoelii. Nature of the series: Antimalarial activity against multidrug resistant Plasmodium yoelii infected in swiss mouse assessed as reduction in parasitaemia at 48 mg/kg, po measured on day 4. The format is functional. On the set-up: scale not given: the % may be the effect or the level left. Conditions: time 4 day.
In series [3] the test system is Plasmodium yoelii. Nature of the series: Antimalarial activity against multidrug resistant Plasmodium yoelii infected in swiss mouse assessed as increase in survival at 48 mg/kg, po after 28 days. Conditions: time 28 day. The format is functional.
Series [4] in a line: Half life in human. The format is ADME.
Series [5] concerns Plasmodium falciparum. Nature of the series: Antimalarial activity against chloroquine-sensitive Plasmodium falciparum NF54. It is filed as functional, organism-based.
In series [6] the test system is Plasmodium falciparum. Nature of the series: Antimalarial activity against chloroquine-sensitive Plasmodium falciparum HB3. The format is functional, organism-based.
The subject of series [7] is Plasmodium falciparum. The series can be described thus: Antimalarial activity against chloroquine resistant Plasmodium falciparum. It is filed as functional, organism-based.
For series [8], the system named is Plasmodium berghei. Nature of the series: Antimalarial activity against Plasmodium berghei N strain infected in mouse at 30 mg/kg, ip administered once daily for 4 days. Conditions: time 4 day. The format is functional.
Series [9] relates to Plasmodium berghei. Nature of the series: Antimalarial activity against Plasmodium berghei infected in sc dosed mouse. Conditions: Plasmodium berghei. It is filed as functional.
The test system of series [10] is Plasmodium falciparum. Nature of the series: Antimalarial activity against Plasmodium falciparum K1. Conditions: read-out: EC50. The format is functional, organism-based.
For series [11], the system named is Plasmodium falciparum. The series can be described thus: Antimalarial activity against Plasmodium falciparum D6. The format is functional, organism-based.
Series [12] has as its system Plasmodium falciparum. Nature of the series: Antimalarial activity against Plasmodium falciparum SGE2. It is filed as functional, organism-based.
Series [13] deals with Plasmodium falciparum. The series can be described thus: Antimalarial activity against Plasmodium falciparum Dd2. The format is functional, organism-based.
Series [14] concerns Plasmodium falciparum. Nature of the series: Antimalarial activity against Plasmodium falciparum HB3. It is filed as functional, organism-based.
Series [15] has as its system Plasmodium falciparum. The series can be described thus: Antimalarial activity against chloroquine sensitive Plasmodium falciparum FCR-3. The format is functional, organism-based.
The subject of series [16] is Plasmodium yoelii. The series can be described thus: Antimalarial activity against multidrug resistant Plasmodium yoelii infected in swiss mouse assessed as increase in survival at 96 mg/kg, po after 28 days. It is filed as functional. Conditions: time 28 day.
In series [17] the test system is Plasmodium yoelii. Nature of the series: Antimalarial activity against multidrug resistant Plasmodium yoelii infected in swiss mouse assessed as reduction in parasitaemia at 96 mg/kg, po measured on day 4. Conditions: time 4 day. The format is functional. Set-up: scale not given: the % may be the effect or the level left.
The subject of series [18] is Plasmodium falciparum. Nature of the series: Antimalarial activity against Plasmodium falciparum W2. It is filed as functional, organism-based.
Series [19] concerns Plasmodium berghei. The series can be described thus: Antimalarial activity against Plasmodium berghei infected in Swiss mouse at 2 mg/kg/day, po. The format is functional.
The nature of series [20]: Selectivity index, ratio of IC50 for HEK293 cells to IC50 for Plasmodium falciparum INDO. Conditions: human, read-out: Ratio IC50. It is filed as toxicity.
Series [21] can be described thus: Cytotoxicity against HEK293 cells. It is filed as toxicity, cell-based. Conditions: human.
Series [22] concerns Plasmodium falciparum. Nature of the series: Antimalarial activity against Plasmodium falciparum INDO. The format is functional, organism-based.
For series [23], the system named is Plasmodium falciparum. Nature of the series: Potency index, ratio of chloroquine IC50 to test compound IC50 for Plasmodium falciparum INDO. It is filed as functional.
Series [24] concerns Plasmodium falciparum. The series can be described thus: Antimalarial activity against Plasmodium falciparum RKL2. The format is functional, organism-based.
Series [25] relates to Plasmodium berghei. The series can be described thus: Antimalarial activity against Plasmodium berghei ANKA infected in mouse at 30 mg/kg. It is filed as functional.
Series [26] concerns Plasmodium falciparum. Nature of the series: Antimalarial activity against Plasmodium falciparum 3D7. The format is functional, organism-based.

Converted amounts (≈) assume the structure as drawn.

As to `C=C(c1ccc(-c2ccccc2)cc1)C1COC2(CCC(Nc3ccccc3)CC2)OO1` (stereo unspecified), the Activity amounted to 100% with Plasmodium yoelii [1], 100% in the series with Plasmodium yoelii [2] and 60% in the series with Plasmodium yoelii [3].

Broadly, the half-life is how long it takes for the measured level to halve. In general, ED50 refers to the midpoint of the dose-response relation. The term EC50 denotes the concentration that produces a half-maximal response. Turning to `C[C@@H]1CC[C@H]2[C@@H](C)C(=O)O[C@@H]3O[C@@]4(C)CC[C@@H]1[C@]32OO4` [ARTEMISININ], the half-life in series [4] is 2 h. Also, the IC50 in the series on Plasmodium falciparum [5] was found to be 18.4 nM; in the series on Plasmodium falciparum [6], 3.04 nM; in the series with Plasmodium falciparum [7] it was 0.001 mg/cm3; in the series on Plasmodium falciparum [11], 55 nM; with Plasmodium falciparum [12] it was 9 nM; in the series on Plasmodium falciparum [13], 13 nM. Further, the IC50 in the series on Plasmodium falciparum [14] worked out at 7 nM; with Plasmodium falciparum [15], 1.4 nM. This compound also showed an Activity in the series on Plasmodium berghei [8] of 74.5%. For the same compound, in the series with Plasmodium berghei [9], it took a dose of 3 mg/kg to reach the 50% effect level (ED50). In addition, the EC50 in the series with Plasmodium falciparum [10] was found to be 3.6 nM.

For the compound `C=C(c1ccccc1)C1COC2(OO1)C1CC3CC(C1)CC2C3` (stereo unspecified), the Activity in the series on Plasmodium yoelii [16] is reported as 80%; in the series on Plasmodium yoelii [17], 96%.

With `CC(C)(N)CNC(=O)O[C@@H]1CCC[C@]2(C1)OOC1(O2)C2CC3CC(C2)CC1C3` (stereo partly specified), the IC50 in the series with Plasmodium falciparum [18] was 1.8 nM. Besides, the Activity in the series with Plasmodium berghei [19] is 100%.

One may read the CC50 as the concentration giving 50% cytotoxicity. For the compound `C=C(c1ccc2c(c1)CCCC2)C1COC2(CCCCC2)OO1` (stereo unspecified), in [20], the selectivity ratio is 589. Also, the CC50 in series [21] was 30100 nM. In the series on Plasmodium falciparum [22], this compound showed an IC50 of 51 nM. In the series with Plasmodium falciparum [23], the “Ratio IC50” value is 11.

As to `CC1(C)OOC(c2ccccc2)(c2ccccc2)OO1`, in the series on Plasmodium falciparum [24], the IC50 was 3.91 µg/mL (≈ 14.3 µM).

Regarding `FC1CCN(CCOc2ccc(C3CCC4(CC3)OOC3(OO4)C4CC5CC(C4)CC3C5)cc2)CC1` (stereo unspecified), in the series on Plasmodium berghei [25], the Activity came out at 99.65%. In addition, in the series on Plasmodium falciparum [26], the IC50 is 5.1 nM.

The values above are taken from ChEMBL document CHEMBL5244272 (Eur J Med Chem, 2021).
